From patent US20200268779A1, “USE OF SECOISOLARICIRESINOL DIGLUCOSIDES (SDGs) AND RELATED COMPOUNDS FOR PROTECTION AGAINST RADIATION-INDUCED CARDIOVASCULAR DYSFUNCTION” (THE TRUSTEES OF THE UNIVERSITY OF PENNSYLVANIA, priority 2017, published 2020)

Tested on: mice exposed to thoracic radiation
Experiment: Thoracic radiation exposure in mice, non-invasive pulse oximetry (MouseOx)
Type: in vivo
Settings: male C57/LJ mice, single fraction thoracic radiation, LGM2605 post exposure daily for 3 weeks or daily for 3 months, measured 130-140 days post radiation
Protocol: FIG. 1. Arterial Oxygen saturation (A) and Pulse Distention (B) were measured in living mice (n=5), between 130 and 140 days post single fraction thoracic radiation exposure.
Mice (male, C57/LJ) were exposed to thoracic radiation and evaluated for multiple cardio-pulmonary measurements such as arterial oxygen saturation and pulse distention using non-invasive Pulse Oximetry (MouseOx non-invasive vital signs monitor STARR Life Sciences Corp., Oakmont, Pa.).
Pulse Distention is the amplitude of the cardiac light absorption signals. Pulse Distention is a hemodynamic measurement obtained by the pulse oximetry software, a measure of the local blood flow (carotid arteries) at the sensor location. […] This could indicate that LGM2605 helps reduce downstream effects of inflammation in tissues other than the lung.

## COc1cc(C[C@@H](CO[C@@H]2O[C@H](CO)[C@@H](O)[C@H](O)[C@H]2O)[C@H](CO[C@@H]2O[C@H](CO)[C@@H](O)[C@H](O)[C@H]2O)Cc2ccc(O)c(OC)c2)ccc1O [LGM2605, secoisolariciresinol diglucoside]
Decreased significantly in irradiated controls (FIG. 1B)
  Pulse distention: remained at baseline levels
Vs irradiated controls and vehicle (FIG. 1A)
  Arterial blood oxygenation (arterial oxygen saturation): improved arterial blood oxygenation
